Where two headings read alike, the source gives them in different places.

The subject of series [1] is SH-SY5Y M-currents (KCNQ2, KCNQ3 and KCNQ5). As to the kind of experiment: SH-SY5Y native cell line FLIPR assay (voltage-sensitive dye DiBAC). Type of series: cell-based, mouse neuroblastoma, rat glioma hybrid cell line. As to conditions: SH-SY5Y native cell line, read-out: SH-SY5Y EC50. Put shortly: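 Response is peak DiBAC fluorescence change, normalised to the maximum from a positive control agent, sampled every 30 s over 25 min. Before compound addition, SH-SY5Y cells differentiated with PGE1 plus isomethylbutylxanthine were dye-loaded for 1 h in EBSS with […] DiBAC.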

Series [2] can be described thus: Metabolic stability in rats after oral administration (mass spectrometry). As to conditions: result in words. The format is in vivo, rat. An excerpt:
Metabolite 14% of parent for compound 65 and metabolite 35% of parent for compound 366 were observed.

The test system of series [3] is electroshock seizure, Male Wistar rats. As to the kind of experiment: In vivo rat assay for anti-convulsant activity (rat MES, electroshock seizure). Conditions: for Rat MES activity: single dose screening, typically 10 mg/kg, animals protected from hind limb extension; for ED50: Rattus norvegicus, po. The protocol:
Male Wistar rats were housed 4 per cage on a regular light/dark cycle (lights on 0600-1800) for one week prior to anti-convulsant testing. The apparatus used to induce electroshock seizure was obtained from Walhquist Instrument Co., Salt Lake City, Utah. The shock level was set at 150 mA and the duration at 0.2 seconds. A drop of 1% proparacaine solution was placed in each eye of a rat, the electrodes were placed over the eyes, and the shock was administered. Latency to hind limb extension was measured to the nearest 0.1 second.
The KCNQ opener was homogenized in either 0.5% carboxymethylcellulose in water or 0.5% methylcellulose in water) and administered orally through a steel 18-gauge rat gavage tube in a volume of 2 mL/kg of body weight. In the single dose screening assay, latency to seizure for the vehicle group and the KCNQ opener group were compared using t-test. Typically a dose of 10 mg/kg of the opener is used. However, openers can be run n a dose-response experiment where doses of 1, 3, 10 and 30 mg/Kg are used.
In the single dose screening assay, latency to seizure for the vehicle and the 10 mg/kg groups were compared using t-test. Latencies to seizure in the dose response studies were submitted to analysis of variance and all dose groups were compared to vehicle using Dunnett's method (JMP© ver 5.1, SAS). In all cases an effect was considered significant if p≦0.05.

As usually defined, the EC50 is the midpoint of the concentration-response curve. For `CC(C)(C)CC(=O)Nc1nc2ccc(C(F)(F)F)cn2c1C1CC1` [Compound 65, N-(3-cyclopropyl-6-(trifluoromethyl)imidazo[1,2-a]pyridin-2-yl)-3,3-dimethylbutanamide], the concentration for a half-maximal effect (EC50) in series [1] (FLIPR assay, Table 1) fell in the range of 500 to 3000 nM. The metabolism in rats entry in series [2] was “undergo metabolism at the terminal carbon of the t-butyl group”.

As to `CC(C)(C)CC(=O)Nc1nc2ccc(F)cn2c1-c1ccc(C(F)(F)F)cc1` [Compound 128, N-(6-fluoro-3-(4-(trifluoromethyl)phenyl)imidazo[1,2-a]pyridin-2-yl)-3,3-dimethylbutanamide], the EC50 in series [1] (FLIPR assay, Table 2) is < 500 nM. Also, in series [3] (oral), the “Rat MES activity” value is “+++ (+++ 7-8 animals protected)”.

For `CC1(CC(=O)Nc2nc3ccc(F)cn3c2-c2ccc(C(F)(F)F)cc2)CCCC1` [Compound 180, N-(6-fluoro-3-(4-(trifluoromethyl)phenyl)imidazo[1,2-a]pyridin-2-yl)-2-(1-methylcyclopentyl)acetamide], the EC50 in series [1] (FLIPR assay, Table 2) is < 500 nM. For the same compound, in series [3] (oral), the “Rat MES activity” value was “++ (++ 4-6 animals protected)”.

As to `CC(C)(C)CC(=O)Nc1nc2ccc(F)cn2c1-c1cc(F)cc(C(F)(F)F)c1` [Compound 198, N-(6-fluoro-3-(3-fluoro-5-(trifluoromethyl)phenyl)imidazo[1,2-a]pyridin-2-yl)-3,3-dimethylbutanamide], in series [1] (FLIPR assay, Table 2), the EC50 was < 500 nM. For the same compound, the “Rat MES activity” value in series [3] (oral) is on record as “+++ (+++ 7-8 animals protected)”.

As to `CC(C)(C)CC(=O)Nc1nc2ccccn2c1-c1ccc(OC(F)(F)F)cc1` [Compound 225, 3,3-dimethyl-N-(3-(4-(trifluoromethoxy)phenyl)imidazo[1,2-a]pyridin-2-yl)butanamide], the EC50 in series [1] (FLIPR assay, Table 2) was < 500 nM. Also, the “Rat MES activity” value in series [3] (oral) is “++ (++ 4-6 animals protected)”.

As for `CC(C)(C)CC(=O)Nc1nc2ccc(Cl)nn2c1-c1ccc(C(F)(F)F)cc1` [Compound 271, N-(6-chloro-3-(4-(trifluoromethyl)phenyl)imidazo[1,2-b]pyridazin-2-yl)-3,3-dimethylbutanamide], in series [1] (FLIPR assay, Table 2), the EC50 is < 500 nM. Further, the “Rat MES activity” value in series [3] (oral) is “++ (++ 4-6 animals protected)”.

The ED50 is the dose that gives a 50% effect, or the effect in half of the subjects. A higher ED50 goes with weaker potency. As to `Cc1ccc2nc(NC(=O)CC(C)(C)C)c(-c3cccc(C(F)(F)F)c3)n2n1` [Compound 308, 3,3-dimethyl-N-(6-methyl-3-(3-(trifluoromethyl)phenyl)imidazo[1,2-b]pyridazin-2-yl)butan amide], the EC50 in series [1] (FLIPR assay, Table 2) was < 500 nM. The compound further yielded an ED50 in series [3] (rat MES dose-response) of 1.6 mg/kg. The “Rat MES activity” value in series [3] (oral) is recorded as “+++ (+++ 7-8 animals protected)”.

In the case of `Cc1ccc2nc(NC(=O)CC(C)C(F)(F)F)c(-c3cccc(C(F)(F)F)c3)n2n1` (centres unmarked) [Compound 316, 4,4,4-trifluoro-3-methyl-N-(6-methyl-3-(3-(trifluoromethyl)phenyl)imidazo[1,2-b]pyridazin-2-yl)butanamide], in series [1] (FLIPR assay, Table 2), the EC50 is < 500 nM. Also, the “Rat MES activity” value in series [3] (oral) is given as “++ (++ 4-6 animals protected)”.

With `CC(C)(C)CC(=O)Nc1nc2ccc(F)cn2c1-c1ccc(C(F)(F)F)cn1` [Compound 353, N-(6-fluoro-3-(5-(trifluoromethyl)pyridin-2-yl)imidazo[1,2-a]pyridin-2-yl)-3,3-dimethylbutanamide], the EC50 in series [1] (FLIPR assay (Table 3)) was < 500 nM. Besides, the “Rat MES activity” value in series [3] (oral) was “+++ (+++ 7-8 animals protected)”.

Take `CC(C)(C)CC(=O)Nc1nc2ccc(F)cn2c1-c1nc2ccccc2s1` [Compound 360, N-(3-(benzo[d]thiazol-2-yl)-6-fluoroimidazo[1,2-a]pyridin-2-yl)-3,3-dimethylbutanamide]: the EC50 in series [1] (FLIPR assay (Table 3)) is < 500 nM. The “Rat MES activity” value in series [3] (oral) is on record as “+ (+ 2-3 animals protected)”.

Take `CC(C)(C)CC(=O)Nc1nc2ccc(F)cn2c1-c1ccc(Cl)cn1` [Compound 363, N-(3-(5-chloropyridin-2-yl)-6-fluoroimidazo[1,2-a]pyridin-2-yl)-3,3-dimethylbutanamide]: the EC50 in series [1] (FLIPR assay (Table 3)) was < 500 nM. In series [3] (oral), the “Rat MES activity” value is listed as “++ (++ 4-6 animals protected)”.

On to `CC(C)(C)CC(=O)Nc1nc2ccc(F)cn2c1-c1cc(C(F)(F)F)ccn1` [Compound 366, N-(6-fluoro-3-(4-(trifluoromethyl)pyridin-2-yl)imidazo[1,2-a]pyridin-2-yl)-3,3-dimethylbutanamide], for which the EC50 in series [1] (FLIPR assay (Table 3)) was < 500 nM. The metabolism in rats result in series [2] is “undergo metabolism at the terminal carbon of the t-butyl group”.

For `CC(C)(C)CC(=O)Nc1nc2ccc(F)cn2c1-c1nccs1` [Compound 371, N-(6-fluoro-3-(thiazol-2-yl)imidazo[1,2-a]pyridin-2-yl)-3,3-dimethyl butanamide], the EC50 in series [1] (FLIPR assay (Table 3)) is 500 to 3000 nM. The same compound yielded an ED50 in series [3] (rat MES dose-response) of 3.6 mg/kg. Moreover, the “Rat MES activity” value in series [3] (oral) was “++ (++ 4-6 animals protected)”.

As to `CC(C)(C(=O)Nc1nc2ccc(C(F)(F)F)cn2c1C1CCC1)C(F)(F)F` [Compound 428, N-(3-cyclobutyl-6-(trifluoromethyl)imidazo[1,2-a]pyridin-2-yl)-3,3,3-trifluoro-2,2-dimethylpropanamide], the EC50 in series [1] (FLIPR assay (Table 6)) was < 500 nM. In series [3] (rat MES dose-response), this compound registered an ED50 of 1.1 mg/kg. Moreover, the “Rat MES activity” value in series [3] (oral) is “+++ (+++ 7-8 animals protected)”.

Take `CC(C)(C(=O)Nc1nc2ccc(C(F)(F)F)cn2c1C1CC1)C(F)(F)F` [Compound 429, N-(3-cyclopropyl-6-(trifluoromethyl)imidazo[1,2-a]pyridin-2-yl)-3,3,3-trifluoro-2,2-dimethylpropanamide]: in series [1] (FLIPR assay (Table 6)), the EC50 was in the range of 500 to 3000 nM. For the same compound, the ED50 in series [3] (rat MES dose-response) was 3.4 mg/kg. Moreover, the “Rat MES activity” value in series [3] (oral) was “+++ (+++ 7-8 animals protected)”.

Regarding `O=C(Nc1nc2ccc(C(F)(F)F)cn2c1C1CCCC1)c1ccc(F)c(F)c1` [Compound 430, N-(3-cyclopentyl-6-(trifluoromethyl)imidazo[1,2-a]pyridin-2-yl)-3,4-difluorobenzamide], the EC50 in series [1] (FLIPR assay (Table 6)) is 500 to 3000 nM. Besides, the 50% effective dose (ED50) in series [3] (rat MES dose-response) was found to be 2.3 mg/kg. Also, in series [3] (oral), the “Rat MES activity” value is given as “++ (++ 4-6 animals protected)”.

With `CC(C)(CC(=O)Nc1nc2ccc(C(F)(F)F)cn2c1C1CCC1)C(F)(F)F` [Compound 431, N-(3-cyclobutyl-6-(trifluoromethyl)imidazo[1,2-a]pyridin-2-yl)-4,4,4-trifluoro-3,3-dimethylbutanamide], the EC50 in series [1] (FLIPR assay (Table 6)) was < 500 nM. This compound also returned an ED50 in series [3] (rat MES dose-response) of 5.2 mg/kg. Also, the “Rat MES activity” value in series [3] (oral) was “+++ (+++ 7-8 animals protected)”. Also, the metabolism in rats entry in series [2] is “little or no metabolism”.

Regarding `O=C(Nc1nc2ccc(C(F)(F)F)nn2c1C1CC1)c1ccc(F)c(F)c1` [Compound 434, N-(3-cyclopropyl-6-(trifluoromethyl)imidazo[1,2-b]pyridazin-2-yl)-3,4-difluorobenzamide], in series [1] (FLIPR assay (Table 6)), the EC50 lay within 500 to 3000 nM. In addition, the “Rat MES activity” value in series [3] (oral) was “++ (++ 4-6 animals protected)”.

Take `CC(C)(C(=O)Nc1nc2ccc(C(F)(F)F)nn2c1C1CC1)C(F)(F)F` [Compound 435, N-(3-cyclopropyl-6-(trifluoromethyl)imidazo[1,2-b]pyridazin-2-yl)-3,3,3-trifluoro-2,2-dimethylpropanamide]: the EC50 in series [1] (FLIPR assay (Table 6)) is 500 to 3000 nM. Further, the “Rat MES activity” value in series [3] (oral) is “+++ (+++ 7-8 animals protected)”.

`CC(C)(C(=O)Nc1nc2ccc(C(F)(F)F)nn2c1C1CCC1)C(F)(F)F` [Compound 437, N-(3-cyclobutyl-6-(trifluoromethyl)imidazo[1,2-b]pyridazin-2-yl)-3,3,3-trifluoro-2,2-dimethylpropanamide]: the EC50 in series [1] (FLIPR assay (Table 6)) was in the range of 500 to 3000 nM. In series [3] (oral), the “Rat MES activity” value is recorded as “+++ (+++ 7-8 animals protected)”.

`CC(C)(CC(=O)Nc1nc2ccc(C(F)(F)F)nn2c1C1CCC1)C(F)(F)F` [Compound 439, N-(3-cyclobutyl-6-(trifluoromethyl)imidazo[1,2-b]pyridazin-2-yl)-4,4,4-trifluoro-3,3-dimethylbutanamide]: the EC50 in series [1] (FLIPR assay (Table 6)) was < 500 nM. In addition, in series [3] (rat MES dose-response), the 50% effect level (ED50) was put at a dose of 0.47 mg/kg. In series [3] (oral), the “Rat MES activity” value is on record as “+++ (+++ 7-8 animals protected)”.

For the compound `CC(C)(CC(=O)Nc1nc2ccc(F)cn2c1C1CCC1)C(F)(F)F` [Compound 446, N-(3-cyclobutyl-6-fluoroimidazo[1,2-a]pyridin-2-yl)-4,4,4-trifluoro-3,3-dimethylbutanamide], the EC50 in series [1] (FLIPR assay (Table 6)) was < 500 nM. In series [3] (oral), the “Rat MES activity” value is “+++ (+++ 7-8 animals protected)”.

Regarding “N-(3-cyclobutyl-6-(trifluoromethyl)imidazo[1,2-b]pyridazin-2-yl)-4,4,4-trifluoro-3,3-dimethylbutanamide [Compound 438]”, the EC50 in series [1] (FLIPR assay (Table 6)) was < 500 nM. For the same compound, in series [3] (oral), the “Rat MES activity” value is “+++ (+++ 7-8 animals protected)”.

In the case of “N-(3-cyclopropyl-6-(trifluoromethyl)imidazo[1,2-b]pyridazin-2-yl)-4,4,4-trifluoro-3,3-dimethylbutanamide [Compound 436]”, the EC50 in series [1] (FLIPR assay (Table 6)) lay within 500 to 3000 nM. Also, the “ED50 (mpk)” value in series [3] (rat MES dose-response, oral) came to 0.7 mpk.

(Values after patent US9018208B2, “Heterocycles as potassium channel modulators” (Icagen Inc., priority 2007, dated 2015).)
